Measured values: article PMC6112376, “Comprehensive Analyses and Prioritization of Tox21 10K Chemicals Affecting Mitochondrial Function by in-Depth Mechanistic Studies” (Environmental Health Perspectives, 2018)
Where two headings read alike, the source gives them in different places.

Tests used:
rat primary hepatocytes [1] = system: rat primary hepatocytes
HepG2 cells [2] = details: cited from earlier work
HepG2 cells [3] = assay: cells; details: Homo sapiens; for IC50: HepG2, read-out: MMP assays IC50 (µM) HepG2; for Emax: HepG2, read-out: MMP assays efficacy (%) HepG2
rat primary hepatocytes [4] = assay: MMP assay in rat primary hepatocytes; details: for IC50: read-out: MMP assays IC50 (µM) Rat Hepatocytes
[5] = read-out: MMP assays IC50 (µM), qHTS-HepG2
[6] = read-out: MMP assays IC50 (µM) qHTS-HepG2

Compound	MMP assays efficacy (%) Rat Hepatocytes (rat primary hepatocytes [1])	MMP assays efficacy (%) qHTS-HepG2 (HepG2 cells [2]) [%]	IC50 (HepG2 cells [2]; [5]) [µM]	IC50 (HepG2 cells [3]) [µM]	Emax (HepG2 cells [3]) [%]	MMP assays IC50 (µM) Rat Hepatocytes (rat primary hepatocytes [4])	IC50 (rat primary hepatocytes [4]; Rattus norvegicus, Hepatocyte) [µM]	IC50 (HepG2 cells [2]; [6]) [µM]	IC50 (rat primary hepatocytes [4]) [µM]
Oc1c(Cl)cc(Cl)cc1Sc1cc(Cl)cc(Cl)c1O [Sodium bithionolate]	inactive	-123±11	0.91 ± 0.78	0.89	116	inactive			
O=C(N/N=C/c1ccc([N+](=O)[O-])o1)c1ccc(O)cc1 [Nifuroxazide]	-91±23%	-89±9	1.57 ± 0.3	2.34	113		6.71 ± 1.54		
CCCCCc1cc(O)c2c(c1)OC(C)(C)c1ccc(C)cc1-2 [Cannabinol]	-98±2%	-124±7		1.09	103		21.8	1.68	
C[C@]12CC[C@@H]3c4ccc(O)cc4C[C@@H](CCCCCCCCC[S+]([O-])CCCC(F)(F)C(F)(F)F)[C@H]3[C@@H]1CC[C@@H]2O (stereo partly drawn) [Fulvestrant]	-48±0%	-99±7	5.86 ± 0.82	5.48	94		8.84 ± 12		
Cc1cc(NC(=O)C2=C(O)c3ccccc3S(=O)(=O)N2C)no1 [Isoxicam]	-60±55%	-66±27	5.18 ± 2.9	2.75	38		4.92 ± 0.8		
CC(C)(C)CC(C)(C)c1ccc(O)cc1 [4-(1,1,3,3-Tetramethylbutyl)phenol]	inactive	-103±8		4.89	100	inactive		4.25 ± 0.92	
CC(=O)Oc1ccc(C(c2ccc(OC(C)=O)cc2)c2ccccn2)cc1 [Bisacodyl]	-73±12%	-67±5		7.74	95		18.4 ± 13	14.8 ± 3.63	
O=[N+]([O-])c1c2ccccc2cc2ccccc12 [Compound 9-Nitroanthracene]	-74±29%	-87±19		35.5	88		33 ± 4.21	21.4 ± 12.8	
CCCCCCCCCCCCc1ccc(O)cc1 [Compound 4-Dodecylphenol]	-53±17%	-96±3		5.01	102		25.1 ± 21.8	3.18 ± 0.58	
Clc1ccccc1-c1ccccc1Cl [2,2'-Dichlorobiphenyl]	inactive	-71±13		63.1	76	inactive		31.1 ± 12.3	
O=c1c(O)c(-c2ccc(O)c(O)c2)oc2cc(O)cc(O)c12 [Quercetin]	-62±28%	-94±8	2.69 ± 2.26	3.16	96				15.1 ± 6.79
Oc1c(Br)c(Br)c(Br)c(Br)c1Br [Pentabromophenol]	-93±13%	-104±8	3.46 ± 0.99	7.94	106		4.98 ± 2.48		
Clc1ccc(C(c2ccc(Cl)cc2)C(Cl)Cl)cc1 [p,p'-DDD]	-37±12%	-103±18	15.2 ± 8.82	39.8	108		42.2 ± 19.8		
Cc1c(N)cccc1N [2,6-Toluenediamine]	-44±11%	-72±11		28.2	85		32.2 ± 7.36	15.7 ± 10	
Oc1cccc2ccccc12 [Compound 1-Naphthol]	inactive	-104±5		31.6	107	inactive		31 ± 5.96	
Nc1ccc(N)cc1 [1,4-Benzenediamine]	inactive	-85±6		2.18	71	inactive		3.28 ± 0.42	
C[C@H]1O[C@@H](O[C@H]2[C@@H](O)C[C@H](O[C@H]3[C@@H](O)C[C@H](O[C@H]4CC[C@@]5(C)[C@H](CC[C@@H]6[C@@H]5CC[C@]5(C)[C@@H](C7=CC(=O)OC7)CC[C@]65O)C4)O[C@@H]3C)O[C@@H]2C)C[C@H](O)[C@@H]1O [Digitoxin]	inactive	-77±6		0.06	97	inactive		0.16 ± 0.05	

Compound	MMP assays efficacy (%) Rat Hepatocytes (rat primary hepatocytes [1])	MMP assays efficacy (%) qHTS-HepG2 (HepG2 cells [2]) [%]	IC50 (HepG2 cells [2]; [5]) [µM]	IC50 (HepG2 cells [3]) [µM]	Emax (HepG2 cells [3]) [%]	MMP assays IC50 (µM) Rat Hepatocytes (rat primary hepatocytes [4])	IC50 (rat primary hepatocytes [4]; Rattus norvegicus, Hepatocyte) [µM]	IC50 (HepG2 cells [2]; [6]) [µM]	IC50 (rat primary hepatocytes [4]) [µM]
CCOc1nc2cccc(C(=O)OC(C)OC(=O)OC3CCCCC3)c2n1Cc1ccc(-c2ccccc2-c2nnn[nH]2)cc1 (stereo not drawn) [Candesartan cilexetil]	inactive	-124±13		11.2	101	inactive		15.9 ± 4.62	
CCC[C@@]1(CCc2ccccc2)CC(O)=C([C@H](CC)c2cccc(NS(=O)(=O)c3ccc(C(F)(F)F)cn3)c2)C(=O)O1 [Tipranavir]	-96±11%	-93±5	26.6 ± 4.94	17.3	100		29.2 ± 2.37		
Cc1cc(C)c(/C=C2\C(=O)Nc3ccccc32)[nH]1 [SU-5416]	-83±12%	-116±2	12.5 ± 1.78	13.8	115		11 ± 1.78		
CC(=O)CC(c1ccccc1)c1c(O)c2ccccc2oc1=O (stereo not drawn) [Sodium warfarin]	-77±32%	-95±22	38.6 ± 12.8	35.5	65		35.5		
Nc1ccc(Cl)cc1N [4-Chloro-1,2-diaminobenzene]	-88±17%	-94±12		2	90		11 ± 4.37	2.38 ± 1.6	
Cc1ccc2cc3c(ccc4ccccc43)c3c2c1CC3 [Compound 3-Methylcholanthrene]	inactive	-74±19		25.2	66	inactive		17.3 ± 13.2	
O=C1c2ccccc2C(=O)c2c1ccc(O)c2O [Alizarin]	-80±8%	-101±8		13.8	94		11.9 ± 7.79	11 ± 1.41	
C[C@H]1O[C@@H](O[C@H]2[C@@H](O)C[C@H](O[C@H]3[C@@H](O)C[C@H](O[C@H]4CC[C@@]5(C)[C@H](CC[C@@H]6[C@@H]5C[C@@H](O)[C@]5(C)[C@@H](C7=CC(=O)OC7)CC[C@]65O)C4)O[C@@H]3C)O[C@@H]2C)C[C@H](O)[C@@H]1O [Digoxin]	inactive	-71±8		0.13	105	inactive		0.52 ± 0.09	
CC1(C)[C@H](C=C(Cl)Cl)[C@H]1C(=O)OCc1c(F)c(F)cc(F)c1F [Transfluthrin]	inactive	-89±13	25 ± 4.09	19.4	70	inactive			
CCC(C)c1cc([N+](=O)[O-])cc([N+](=O)[O-])c1OC(=O)OC(C)C (stereo not drawn) [Dinobuton]	-115±54%	-105±4		7.94	101		5.74 ± 4.21	4.33 ± 1.24	
CCc1oc2ccccc2c1C(=O)c1cc(Br)c(O)c(Br)c1 [Benzbromarone]	-82±50%	-138±3		13.8	107		4.91 ± 1.79	7.22 ± 1.24	
O=C(NC(=O)c1c(F)cccc1F)Nc1cc(Cl)c(Oc2ncc(C(F)(F)F)cc2Cl)c(Cl)c1 [Chlorfluazuron]	-79±42%	-114±19		12.6	98		29.3 ± 1.99	8.93 ± 4.57	
CC(C)(c1ccccc1)c1ccc(O)cc1 [Compound 4-Cumylphenol]	-77±17%	-103±17		3.55	108		48 ± 11.6	3.7 ± 0.82	
Brc1ccc(Oc2cc(Br)c(Br)cc2Br)c(Br)c1 [2,2',4,4',5-Pentabromodiphenyl ether]	-43±30%	-109±22		4.47	88		9.11 ± 4.93	8 ± 3.19	
CCCCCCCC(=O)Oc1c(Br)cc(C#N)cc1Br [Bromoxynil octanoate]	-38±2%	-109±13		31.6	125		28.6 ± 22.7	15.3 ± 5.08	
C(=NC1CCCCC1)=NC1CCCCC1 [Dicyclohexylcarbodiimide]	inactive	-69±18		0.0178	39	inactive		0.3 ± 0.2	
